The values that follow come from patent US20240240189A1, “CANCER TREATMENT BY TARGETING PROTEINS OR INTERACTIONS OF EPHRINB-RGS3-KIF20A-SEPT7 AXIS” (CITY OF HOPE, priority 2021, published 2024).

Data set [1] concerns KIF20A. Briefly: Western blot of KIF20A in Daoy clones with Tet-on shKIF20A726. Format: cell-based, human. Conditions: three Daoy clones, doxycycline induction of Tet-on shKIF20A726. The procedure:
Western Blot: Daoy cell clones stably integrated with Tet-on shKIF20A726 were cultured with or without Doxycycline induction for 3 days. These Daoy cells were washed with PBS, lysed with 2×SDS loading buffer and boiled for 5 minutes. Denatured proteins were resolved by SDS-PAGE and transferred to a PVDF membrane for Western blot detection by KIF20A (L13) antibody (1:500) and HRP-conjugated Donkey anti-Goat second antibody (1:2500) with chemiluminescent substrate (ThermoFisher Scientific, Cat: 34095).
Generation of Daoy cell lines with stably integrated Tet-on inducible shRNA expression system: Daoy cells were infected with lentivirus of Tet-on inducible human KIF20A shRNA-726 and GFP-Luciferase prepared from Tet-pLKO-hushKIF20A726 plasmid and Hiv7CMVGFP-IRES-Luciferase plasmid, respectively. The transduced Daoy cells were selected for stable single clones with Puromycin (1 μg/ml, Sigma-Aldrich) and GFP fluorescence signal in DMEM (Invitrogen) with 10% fetal bovine serum. Single clones were picked up by glass cloning cylinders (Sigma-Aldrich) in 10 cm plate. Three clones were obtained and tested for growth ability and doxycycline (0.5 μg/ml) inducibility using growth curve assay, western blots and luciferase reporter assay system. Clone #2 was selected for further use.

The next data set relates to Daoy human MB cells. In words: Growth assay of Daoy cells. The following applies: three Daoy clones, inducible expression of shKIF20A726 (+Dox). Format: cell-based. As for the experimental part:
Generation of Daoy cell lines with stably integrated Tet-on inducible shRNA expression system: Daoy cells were infected with lentivirus of Tet-on inducible human KIF20A shRNA-726 and GFP-Luciferase prepared from Tet-pLKO-hushKIF20A726 plasmid and Hiv7CMVGFP-IRES-Luciferase plasmid, respectively. The transduced Daoy cells were selected for stable single clones with Puromycin (1 μg/ml, Sigma-Aldrich) and GFP fluorescence signal in DMEM (Invitrogen) with 10% fetal bovine serum. Single clones were picked up by glass cloning cylinders (Sigma-Aldrich) in 10 cm plate.
Growth Assay of tumor cells: Mouse MB cell lines, or Daoy clones stably integrated with Tet-on inducible human KIF20A shRNA-726, or Wild Type Daoy cells, were seeded into multiple wells of 24 well plates (2×10^4 or 1×10^4 cells per well). Cells in quadruplicate were then dissociated and counted using a hemocytometer at consecutive days after initial plating.

The next data set has as its system Daoy cells. In words: Intracranial Daoy tumor transplantation in NSG mice, bioluminescence imaging and survival. The following applies: Daoy Clone #2 in cerebellum of NSG mice. The data set is classed as in vivo, mouse. An excerpt: Expression of the two factors was highly correlated. […] Tumor growths were monitored by bioluminescence imaging. Doxycycline treatment started at four weeks after initial cell implantation (indicated with a red font and line). The treatment group of mice was first given doxycycline by gavage for two consecutive days and was then fed with doxycycline-containing food for the entire duration of the experiment.
Intracranial tumor transplantation and Bioluminescence imaging: NSG mice (8-10 weeks old) were anesthetized with isoflurane and oxygen and placed under microscope. […] The transplanted mice were then monitored weekly with luciferase-based bioluminescence imaging for tumor growth. […] Tumor growths in two mice groups were monitored weekly by bioluminescence imaging. Survivals of mice after cell transplantation were recorded and analyzed.
To examine the function of KIF20A in tumor formation by Daoy cells, 10^5 Clone #2 cells were injected into the cerebellum of each recipient NSG mouse using a method previously described^22. Growth of tumor cells was then monitored by bioluminescence imaging. […] The mice were then kept on doxycycline-containing food continuously and were monitored for tumor growth by bioluminescence imaging.

Data set [2] relates to KIF20A. In words: KIF20A knockdown in GISC017 cells by lentiviral shRNA. The data set is classed as cell-based, human. Conditions: constitutive lentiviral expression, vs scrambled shRNA. An excerpt:
(§1) To further investigate the relevance of KIF20A in human brain tumors, inhibition of KIF20A in patient-derived GBM-initiating/stem cells (GISCs) was examined. As the ERKS axis functions in different types of brain tumor-initiating/stem cells, data obtained from study of GISCs would be applicable to other brain tumor cell types. Multiple lines of patient-derived GISCs were obtained from Dr. Christine Brown. These low passaged GISCs could be expanded in cultures and could engraft in NSG mice^43, 44. FIG. 11 summarizes the results of testing KIF20A in one GISC line (GISC017) by constitutive expression of a control scrambled shRNA or shKIF20A726 (shRNA targeting hKIF20A) in pNUT vector-based lentiviral expression system. […] In the above cell cycle exit analysis, co-staining of differentiation markers (e.g. βlll-tubulin, DCX, or NeuN) was performed, however, these markers were detected in EdU^+Ki67^− (cells having left the cell cycle) but also in some EdU^+Ki67^+ (cells staying in the cell cycle) cells, which might reflect a technical artefact observed with progenitor/stem cells in culture. […]

Data set [3] concerns GISC017 cells. Briefly: Cell growth of GISC017 cells. Format: cell-based, human. Conditions: vs scrambled shRNA.
From the text: as §1

Data set [4] concerns GISC017 cells. In words: Flow cytometry-based cell cycle analysis (4N DNA content) of GISC017 cells. Further details: species or system human. Conditions: vs scrambled shRNA.
From the text: as §1
In general terms: A flow cytometer gives signals particle by particle.

For data set [5], the system named is GISC017 cells. Briefly: GISC017 xenograft in brains of NSG mice. Format: in vivo. Conditions: GISC017 clones with Tet-inducible shKIF20A726 in NSG mouse brain, doxycycline treatment. As for the experimental part: FIG. 12a: NSG mice were injected with GISC017 cells stably integrated with Tet-inducible shRNA and luciferase. Treatment with doxycycline started at 10 days after cell implantation (indicated by the red line). FIG. 12b: Survival data of the mice were analyzed by Kaplan-Meier plot.
GISC017 cell clones stably integrated with a Tet-inducible shKIF20A726 and luciferase expression cassette were established.

“Also recorded” adds a separate entry of the source.

For “5′-GAGGAGTGTCTACATCGAA-TTCAAGAGA-TTCGATGTAGACACTCCTC-3′ (GAGGAGTGTCTACATCGAATTCAAGAGATTCGATGTAGACACTCCTC; hairpin, further chemistry not given here) [shKIF20A726, shRNA targeting human KIF20A transcript]”, in the data set with KIF20A [1], the “KIF20A expression (Western blot)” value is on record as “significant knockdown of KIF20A expression in all three cell clones; also recorded: reduction of KIF20A expression”. For the same substance, the cell proliferation entry in the data set with Daoy human MB cells was “significantly inhibit the proliferation of all three clones; also recorded: inhibit cell proliferation”. Moreover, the “brain tumor growth (bioluminescence imaging)” value in the data set on Daoy cells (doxycycline from four weeks after implantation vs untreated) is “significantly slower growth of brain tumors; also recorded: inhibited tumor growth”. The “survival (Kaplan-Meier)” value in the data set on Daoy cells (doxycycline treatment vs untreated) is listed as “better overall survival”. For the same substance, the KIF20A level result with KIF20A [2] is “strongly knocked down KIF20A level; also recorded: significant knockdown of KIF20A expression”. In addition, the cell growth rate entry in the data set with GISC017 cells [3] is given as “slower cell growth rate; also recorded: inhibited cell growth”. Further, in the data set on GISC017 cells [4], the “4N DNA contents / cytokinesis” value is on record as “comparable; also recorded: did not cause obvious change in cytokinesis”. Further, in the data set with GISC017 cells [5], the animal survival entry was “prolong animal survival” and the tumor xenograft growth result is “suppress tumor xenograft growth”.
